melting point [°C] | Compound
166 to 168 | CC(NC(=O)c1ccoc1)C(=O)O (stereo not drawn)
171 to 173 | COC(=O)C1Nc2ccccc2S(=O)(=O)N1 (stereo not drawn)
197 to 199 | Cc1cc(C(=O)O)ccc1S(=O)(=O)Cl
79 to 81 | CCN(CC)S(=O)(=O)c1ccc(C(=O)CBr)cc1
182 to 184 | COc1ccc(C(=O)O)c(I)c1
123 to 125 | O=C(O)CCCNS(=O)(=O)c1ccc(Cl)c(Cl)c1
141 to 143 | Cc1cc2occ(CC(=O)O)c2cc1C(C)C
130 to 132 | CS(=O)(=O)NCC1CCCNC1 (stereo not drawn)
88 to 90 | Nc1ccn(Cc2cccnc2)n1
235 to 237 | O=C(O)Cn1c(-c2cccc(Cl)c2Cl)nc2ccccc21
54 to 56 | CC(C)C1(C(=O)O)CC1
64 to 66 | CN(C)C(=O)CCn1cc(Br)cn1
68 to 70 | CC(=O)CCc1ccc(OC(C)C(=O)O)cc1 (stereo not drawn)
142 to 144 | Nc1nc(-c2ccccc2Cl)cs1
114 to 116 | CN(C)C(=O)CNc1ccccc1
212 to 216 | O=C(O)c1ccn[nH]1
44 to 46 | Cc1cc(S(=O)(=O)Cl)c(Cl)cc1F
105 to 107 | CC(NC(=O)CC(F)(F)F)C(=O)O (stereo not drawn)
142 to 144 | NNC(=O)COc1ccc(OCc2ccccc2)cc1
169 to 171 | N#Cc1c(CCCN)n[nH]c1N
249 to 251 | NC(Cc1ccc2c(c1)OCO2)C(=O)O (stereo not drawn)
232 to 234 | COc1ccc(-n2c(C)cc(C(=O)O)c2C)cc1
64 to 66 | CCOc1ccccc1C=NO
111 to 113 | Cn1c(Cl)nc2ccccc21
149 to 151 | CNC(=O)Cn1cnc(N)n1

melting point [°C] | Compound
219 to 221 | Nc1cc2c(nn1)CCNC2
159 to 161 | O=C(O)c1cc(N2CCCC2=O)ccc1Cl
113 to 115 | O=Cc1ccccc1-n1cncn1
142 to 144 | COc1ccc(-c2ccc(CCC(=O)O)o2)cc1
81 to 83 | Cc1ccc(COc2cccc(N)c2)cc1
236 to 238 | CS(=O)(=O)c1cc(C(=O)O)ccc1Br
109 to 111 | OC1CCN(c2ccc(Cl)nn2)CC1
248 to 250 | Nc1nc(-c2nc3ccccc3s2)cs1
189 to 191 | O=c1[nH]c(-c2cccc(Oc3ccccc3)c2)no1
143 to 144 | O=C(O)c1cc(F)cnc1Cl
84 to 86 | O=Cc1ccc([N+](=O)[O-])cc1F
120 to 122 | COc1ccc2c(c1)CC(C(=O)O)CO2 (stereo not drawn)
214 to 216 | Cn1nc(C(=O)O)cc1-c1ccc2c(c1)OCO2
49 to 51 | CNC(c1ccc(Cl)cc1)c1ccc(Cl)cc1
245 to 247 | O=C1NS(=O)(=O)c2ccc(Br)cc21
264 to 266 | COc1ccc(C=O)c2cc(C(=O)O)oc12
167 to 169 | CC(NC(N)=O)C1CC2CCC1C2 (stereo not drawn)
172 to 174 | CCCCn1c(=O)[nH]c(=O)c2c1nc(CCl)n2CC
171 to 173 | CC(C)(C)c1ccc(Oc2ccc(C(=O)O)cc2F)cc1
129 to 131 | Brc1cccc(-c2ncc[nH]2)c1
161 to 163 | NC(=O)c1ccn(-c2ccccc2N)n1
93 to 95 | COC(=O)c1ccn2cncc2c1
188 to 193 | Nc1nc(Cl)ccc1[N+](=O)[O-]
199 to 201 | NC(=S)c1cc(Br)cs1
243 to 245 | CC1(C2CCNCC2)NC(=O)NC1=O (stereo not drawn)

melting point [°C] | Compound
184 to 186 | Cc1c(C(=O)O)nnn1-c1cccc(Br)c1
203 to 205 | O=C(O)c1cc2ccccc2cc1NS(=O)(=O)c1ccc(F)cc1
184 to 186 | CC(=O)N1CCCc2cc(C(=O)O)ccc21
193 to 195 | Cc1cc(C(=O)O)cc(S(=O)(=O)Cl)c1F
157 to 161 | O=Cc1coc2ccc([N+](=O)[O-])cc2c1=O
141 to 143 | O=C(O)C1CCN(c2ccc(C(F)(F)F)cc2[N+](=O)[O-])CC1
98 to 100 | NNC(=O)CCSc1ccc(F)cc1
223 to 225 | Cc1cc(NC(=O)c2ccccc2Cl)sc1C(=O)O
88 to 90 | O=C(c1cc2cc(Br)ccc2o1)c1cccs1
107 to 109 | CNc1ccc(C(=O)N2CCOCC2)cc1C
202 to 204 | Cc1nc2cc(Cl)ccc2c(=O)n1N
111 to 113 | Nc1nc(-c2ccc(F)cc2)cs1
140 to 142 | CN1CCN(S(=O)(=O)c2cccc(N)c2)CC1
111 to 113 | O=C(O)c1cc(S(=O)(=O)Cl)cc(F)c1F
89 to 91 | COC(=O)c1c(Cl)ccc([N+](=O)[O-])c1N
156 to 158 | CN(C)C(=O)c1ccc(O)cc1
183 to 185 | O=C(O)c1coc(C#Cc2ccccc2)c1
119 to 121 | CCOC(=O)c1cc2c(C)cc(C)cc2[nH]1
192 to 194 | O=C(O)/C(=C\c1cccc(Cl)c1)c1cccs1
185 to 187 | O=C(O)C1CCCN1C(=O)c1ccco1 (stereo not drawn)
172 to 174 | Cc1noc(C)c1COc1ccccc1C(=O)O
48 to 50 | CCCCCC(C)CNC(=S)NN (stereo not drawn)
222 to 224 | Cc1cc(Br)cc2cc(C(=O)O)oc12
168 to 170 | O=C(CBr)c1cc2cc(Cl)ccc2o1
121 to 123 | Cc1cccc(N2CCN(c3ccc(C#N)cn3)CC2)c1

melting point [°C] | Compound
126 to 128 | CC1(Br)CS(=O)(=O)CC1Br (stereo not drawn)
182 to 184 | Fc1ccc2nc(NCc3ccccc3)sc2c1
214 to 216 | CC(C)(C)OC(=O)NCc1nc(-c2ccc(N)cc2)n[nH]1
108 to 110 | O=C(O)COc1ccccc1OCc1ccc(F)cc1
48 to 50 | COc1cc(C=O)cc(Br)c1OCc1ccccc1
77 to 79 | Cc1cc(CO)c(C)n1-c1ccccc1
74 to 76 | CC(C)c1cc(C(=O)O)on1
146 to 148 | CC(C)c1nnc(S)n1C1CC1
144 to 146 | Nc1cccc(N2CCCCC2=O)c1
36 to 37 | O=C(CCc1ccccc1)c1ccccc1O
154 to 156 | COc1cc(Br)ccc1C(=O)O
183 to 185 | O=c1[nH]c(-c2cccs2)no1
211 to 213 | Cc1ccsc1-c1nnc(S)o1
54 to 56 | ClCc1coc(-c2ccccc2Cl)n1
134 to 136 | CCOc1ccc(S(=O)(=O)N2CCCCC2)cc1N
100 to 102 | CCc1ccc(C(=O)O)cc1CC
32 to 34 | COC(=O)CSc1cncc(Cl)n1
58 to 66 | Nc1nc2c(s1)CCc1ccccc1-2
184 to 186 | O=C(O)c1cccc([N+](=O)[O-])c1Br
137 to 139 | CC(=O)CC(=O)Nc1ccc(Br)cc1
147 to 149 | NS(=O)(=O)c1cccc2c1CCCN2
136 to 138 | ON=Cc1csnn1
206 to 208 | O=C(O)c1ccc(S(=O)(=O)Cl)c(Br)c1

Compound | melting point [°C]
O=[N+]([O-])c1ccc(CCl)c(Cl)c1 | 50 to 52
CN1CCC(n2nccc2N)CC1 | 98 to 100
CC(C)(C)n1cc(C(=O)O)c(Br)n1 | 163 to 165
CN1CCC(N(C)c2ccc(N)cc2)CC1 | 62 to 64
CC(O)(CN)c1ccc(F)cc1 (stereo not drawn) | 69 to 71

Source: a melting point compilation (Tetko et al.)
